In US9169257B2, “Crystal forms of adefovir dipivoxil and processes for preparing the same” (Daewoong Pharmaceutical Co., Ltd., priority 2009, dated 2015):

Key:
Type in all cases: physicochemical
[1] = Drying temperature conditions: transformation of the crystal form under vacuum drying; details: for Crystal form: vacuum 0.1˜1.0 Torr
Method: Form A prepared by Example 3 was treated with various drying temperatures and drying times under the vacuum condition of 0.1˜1.0 Torr, and the resulting trans-formation of the crystal form is represented in Table 1.

[2] = Dissolution test of formulations; details: for Dissolution rate (%): formulation per Example 1 of WO00/35460, average of 3
Method: Using the novel Form B prepared in Example 11 of the present invention and the Form I prepared in Example 1 of WO99/04774 as raw materials, each formulation was manufactured by the technique disclosed in Example 1 of WO00/35460. Dissolution rates were compared in 0.01N HCl solution, pH 1.2 buffer solution (NaCl 20 g+37% HCl 68˜70 mL+distilled water 9 L), pH 4.0 buffer solution (sodium acetate 7.38 g+acetic acid 25 mL+distilled water 9 L), pH 6.0 buffer solution (KH2PO4 68 g+NaOH+distilled water 10 L) and pH 7 distilled water. Experiments were repeated 3 times for each case, and the average values are represented in Table 4.

[3] = Stability test (HPLC content and decomposition products, 5° C. and accelerated condition over 6 months)
Method: The novel Forms A and B of Examples 3 and 11 of the present invention, and 50 mg of the authentic adefovir dipivosil (purity: 99.5%) were precisely weighed into a 50 mL volumetric flask and dissolved in diluent. After making up to the mark, they were used as sample solution and standard solution, respectively. Analysis was carried out according to the following conditions, so that the contents of the novel Forms A and B, and the amounts of decomposition products of adefovir dipivoxil formed were calculated by the peak areas. The changes in the contents of novel crystal forms and the amounts of decomposition products were measured under 5° C. and accelerated condition over 6 months.
Instrument: Waters HPLC model 2695
Column: Allech Mixed Mode Anion exchange C8, 7 um 100 A pore size, 250 mm×4.6 mm
Mobile phase mixing condition was operated as follows: For 19 min, mobile phase A was changed from 100% to 0%, and mobile phase B was changed from 0% to 100%. After elution with mobile phase B 100% till 36 min, the elution was changed from mobile phase A 0% to 100% till 46 min.
Mobile phase A: buffer/acetonitrile (70:30, v/v)
Mobile phase B: buffer/acetonitrile (50:50, v/v)
Buffer: 9.2 g of K2HPO4 and 47.2 g of KH2PO4 were dissolved in 2 L of purified water
Diluent: 3.4 g of KH2PO4 was dissolved in 1 L of purified water and adjusted to pH 3.0
Detector wave length: 260 nm

[4] = drying time 10 h, drying temperature 40° C.
[5] = Accelerated (25° C., 60% RH), 0 month
[6] = Accelerated (25° C., 60% RH), 1 month
[7] = Accelerated (25° C., 60% RH), 3 months
[8] = Accelerated (25° C., 60% RH), 6 months

CC(C)(C)C(=O)OCOP(=O)(COCCN1C=NC2C(N)=NC=NC21)OCOC(=O)C(C)(C)C (single isomer, unassigned) [Form I, 9-[2-[phosphonomethoxy]ethyl]adenine bis-pivaloyloxymethyl ester, reference compound]
Transformation of the crystal form ([1]; dried at 35 to 45° C.): not transformed to Form B
Crystal form [1, 4]: Form I
Crystal form ([1]; drying time 20 h, drying temperature 40° C.): Form I
Dissolution rate (%) ([2]; 0.01N HCl, 5 min): 88.11%
Dissolution rate (%) ([2]; 0.01N HCl, 10 min): 93.32%
Dissolution rate (%) ([2]; 0.01N HCl, 15 min): 95.48%
Dissolution rate (%) ([2]; 0.01N HCl, 30 min): 98.17%
Dissolution rate (%) ([2]; distilled water (pH 7), 5 min): 70.92%
Dissolution rate (%) ([2]; distilled water (pH 7), 10 min): 83.19%
Dissolution rate (%) ([2]; distilled water (pH 7), 15 min): 88.58%
Dissolution rate (%) ([2]; distilled water (pH 7), 30 min): 94.85%
Dissolution rate (%) ([2]; pH 1.2 buffer, 5 min): 95.24%
Dissolution rate (%) ([2]; pH 1.2 buffer, 10 min): 100.90%
Dissolution rate (%) ([2]; pH 1.2 buffer, 15 min): 101.38%
Dissolution rate (%) ([2]; pH 1.2 buffer, 30 min): 101.61%
Dissolution rate (%) ([2]; pH 4.0 buffer, 5 min): 83.38%
Dissolution rate (%) ([2]; pH 4.0 buffer, 10 min): 88.07%
Dissolution rate (%) ([2]; pH 4.0 buffer, 15 min): 89.76%
Dissolution rate (%) ([2]; pH 4.0 buffer, 30 min): 93.00%
Dissolution rate (%) ([2]; pH 6.0 buffer, 5 min): 74.89%
Dissolution rate (%) ([2]; pH 6.0 buffer, 10 min): 89.88%
Dissolution rate (%) ([2]; pH 6.0 buffer, 15 min): 94.58%
Dissolution rate (%) ([2]; pH 6.0 buffer, 30 min): 97.38%

CC(C)(C)C(=O)OCOP(=O)(COCCN1C=NC2C(N)=NC=NC21)OCOC(=O)C(C)(C)C (single isomer, unassigned) [Form B, 9-[2-[phosphonomethoxy]ethyl]adenine bis-pivaloyloxymethyl ester]
Content ([3]; 5° C., 0 month): 100.48%
Total amount of decomposition product ([3]; 5° C., 0 month): 0.38%
Content ([3]; 5° C., 1 month): 100.34%
Total amount of decomposition product ([3]; 5° C., 1 month): 0.31%
Content ([3]; 5° C., 3 months): 99.18%
Total amount of decomposition product ([3]; 5° C., 3 months): 0.36%
Content ([3]; 5° C., 6 months): 99.74%
Total amount of decomposition product ([3]; 5° C., 6 months): 0.43%
Content [3, 5]: 100.48%
Total amount of decomposition product [3, 5]: 0.38%
Content [3, 6]: 98.85%
Total amount of decomposition product [3, 6]: 0.42%
Content [3, 7]: 100.25%
Total amount of decomposition product [3, 7]: 0.50%
Content [3, 8]: 99.32%
Total amount of decomposition product [3, 8]: 0.66%
Dissolution rate (%) ([2]; 0.01N HCl, 5 min): 85.25%
Dissolution rate (%) ([2]; 0.01N HCl, 10 min): 97.19%
Dissolution rate (%) ([2]; 0.01N HCl, 15 min): 99.65%
Dissolution rate (%) ([2]; 0.01N HCl, 30 min): 101.12%
Dissolution rate (%) ([2]; distilled water (pH 7), 5 min): 83.57%
Dissolution rate (%) ([2]; distilled water (pH 7), 10 min): 96.96%
Dissolution rate (%) ([2]; distilled water (pH 7), 15 min): 98.73%
Dissolution rate (%) ([2]; distilled water (pH 7), 30 min): 98.96%
Dissolution rate (%) ([2]; pH 1.2 buffer, 5 min): 93.77%
Dissolution rate (%) ([2]; pH 1.2 buffer, 10 min): 101.06%
Dissolution rate (%) ([2]; pH 1.2 buffer, 15 min): 102.03%
Dissolution rate (%) ([2]; pH 1.2 buffer, 30 min): 101.71%
Dissolution rate (%) ([2]; pH 4.0 buffer, 5 min): 87.18%
Dissolution rate (%) ([2]; pH 4.0 buffer, 10 min): 96.99%
Dissolution rate (%) ([2]; pH 4.0 buffer, 15 min): 98.21%
Dissolution rate (%) ([2]; pH 4.0 buffer, 30 min): 98.98%
Dissolution rate (%) ([2]; pH 6.0 buffer, 5 min): 88.62%
Dissolution rate (%) ([2]; pH 6.0 buffer, 10 min): 95.33%
Dissolution rate (%) ([2]; pH 6.0 buffer, 15 min): 98.01%
Dissolution rate (%) ([2]; pH 6.0 buffer, 30 min): 100.32%
Dissolution rate compared with the formulation utilizing the existing Form I ([2]; formulations, summary of Table 4): superior

CC(C)(C)C(=O)OCOP(=O)(COCCN1C=NC2C(N)=NC=NC21)OCOC(=O)C(C)(C)C (single isomer, unassigned) [Form A, 9-[2-[phosphonomethoxy]ethyl]adenine bis-pivaloyloxymethyl ester]
Transformation of the crystal form ([1]; dried at 35 to 45° C.): transformed from Form A to Form B
Crystal form ([1]; drying time 10 h, drying temperature 25° C.): Form A (2 hydrate)
Crystal form ([1]; drying time 10 h, drying temperature 35° C.): Form B
Crystal form [1, 4]: Form B
Crystal form ([1]; drying time 10 h, drying temperature 42° C.): Form B
Crystal form ([1]; drying time 10 h, drying temperature 45° C.): Form B
Crystal form ([1]; drying time 10 h, drying temperature 50° C.): Mixture of Form B +
Crystal form ([1]; drying time 48 h, drying temperature 25° C.): Form A (2 hydrate)
Transformation of the crystal form ([1]; vacuum dried at 25° C.): not transformed to other crystal forms
Content ([3]; 5° C., 0 month): 100.26%
Total amount of decomposition product ([3]; 5° C., 0 month): 0.27%
Content ([3]; 5° C., 1 month): 99.45%
Total amount of decomposition product ([3]; 5° C., 1 month): 0.25%
Content ([3]; 5° C., 3 months): 100.43%
Total amount of decomposition product ([3]; 5° C., 3 months): 0.25%
Content ([3]; 5° C., 6 months): 100.2%
Total amount of decomposition product ([3]; 5° C., 6 months): 0.32%
Content [3, 5]: 100.26%
Total amount of decomposition product [3, 5]: 0.27%
Content [3, 6]: 99.68%
Total amount of decomposition product [3, 6]: 0.38%
Content [3, 7]: 99.50%
Total amount of decomposition product [3, 7]: 0.43%
Content [3, 8]: 100.06%
Total amount of decomposition product [3, 8]: 0.60%
